Source: patent publication US9017719B2, “Injectable drug carrier comprising layered double hydroxide” (Nanohybrid Co., Ltd., priority 2005, dated 2015)

Test: In vivo toxicity test of LDH-MTX hybrid and MTX, intraperitoneal, death rate
Details: mouse, ip, Balb/c mice, dosed weekly for three weeks
Experimental: Like in the in vivo toxicity test of LDH of Example 2, small animal models, Balb/c mice (6-7 weeks old) were purchased and managed in cages (5 mice/cage). MTX was administered intraperitoneally to 10 mice at each concentration of 50, 75, and 100 mg/kg and the LDH-MTX hybrid synthesized in Example 3 was administered intraperitoneally to 10 mice at each concentration of 3, 6, 12.5, 25, 50, 75, and 100 mg/kg. The body weight of each mouse was measured every week for three weeks and a dosage of drug adjusted to the newly measured weight was administered. The body weights of the mice died during the test were excluded from statistical analysis. A death rate with respect to the concentration of MTX is represented by total number of mice survived in FIG. 7a and a death rate with respect to the concentration of the LDH-MTX hybrid is represented by the total number of mice survived in FIG. 7b. […] That is, the lethal dose of the LDH-MTX hybrid was equal to ⅓ of that of MTX.

Structure (SMILES): CN(Cc1cnc2nc(N)nc(N)c2n1)c1ccc(C(=O)N[C@@H](CCC(=O)O)C(=O)O)cc1 [MTX, methotrexate]
- LD50 at 3 weeks: 75 mg/kg
